Literature values, collected in patent US9345733B1, “Supplement composition for supporting telomere maintenance and protection and method of use” (CELLHEALTH TECHNOLOGIES LTD., priority 2011, dated 2016).
Read-outs that look alike come from different tables or passages of the source.

Experiments:
[1] = test system: endothelial nitric oxide synthase; conditions: human aortic endothelial cells
[2] = test system: endothelial progenitor cells; conditions: in culture
NF-κB and TNF-a = conditions: peripheral blood mononuclear cells of asthma patients, in-vitro
[3] = test system: diseased endothelial cells; conditions: chronic exposure; via activation of hTERT and transient telomere stabilization
TNF-a [4] = conditions: hypertensive rats
alveolar macrophages = alveolar macrophages in idiopathic pulmonary fibrosis in vitro
[5] = test system: endothelial progenitor cells
TNF-a [6] = target: TNF-a (Homo sapiens, UniProt P01375)
TNF-a (Homo sapiens, UniProt P01375), sequence (P01375 77-233 limits assumed, species assumed): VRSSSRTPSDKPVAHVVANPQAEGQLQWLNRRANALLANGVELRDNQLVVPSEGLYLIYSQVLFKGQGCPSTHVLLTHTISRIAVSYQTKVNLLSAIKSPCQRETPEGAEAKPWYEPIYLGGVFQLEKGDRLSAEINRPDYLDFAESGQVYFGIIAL

[7] = test system: IL-23p19, IFN-y, TNF-a, IL-6, MCP-1; conditions: ileum of treated animals
[8] = test system: chronic colonic inflammation; conditions: mice, dietary supplementation; reductions of TNF-a and IL-1β, increase of IL-10
[9] = test system: human peripheral blood mononuclear cells; conditions: stimulated human peripheral blood mononuclear cells in vitro
[10] = test system: endothelial nitric oxide synthase; conditions: HUVEC, at nanomolar concentrations
[11] = test system: vascular smooth muscle cells; conditions: stimulated by tumor necrosis factor-alpha
[12] = test system: human arterial smooth muscle cells (HASMCs)

CC(C)=CCC[C@](C)(O[C@@H]1O[C@H](CO[C@@H]2O[C@H](CO)[C@@H](O)[C@H](O)[C@H]2O)[C@@H](O)[C@H](O)[C@H]1O)[C@H]1CC[C@]2(C)[C@@H]1[C@H](O)C[C@@H]1[C@@]3(C)CC[C@H](O[C@@H]4O[C@H](CO)[C@@H](O)[C@H](O)[C@H]4O[C@@H]4O[C@H](CO)[C@@H](O)[C@H](O)[C@H]4O)C(C)(C)[C@@H]3CC[C@]12C [ginsenoside Rb1]
endothelial nitric oxide synthase-Ser1177 phosphorylation and nitric oxide production [1]: acutely induces

O=c1c(-c2ccc(O)cc2)coc2c([C@@H]3O[C@H](CO)[C@@H](O)[C@H](O)[C@H]3O)c(O)ccc12 [puerarin, Puerarin]
onset of endothelial progenitor cells senescence [2]: dose dependently prevents
proliferation of endothelial progenitor cells [2]: increases
pathway of NF-κB and TNF-a (NF-κB and TNF-a): could inhibit

CC(=O)N[C@@H](CS)C(=O)O [N-acetylcysteine]
senescence of diseased endothelial cells [3]: can delay senescence
deleterious effect of TNF-a on calcium transients and contraction (adult rat cardiomyocytes): prevents
progression of cardiac injury (TNF-a [4]): hinders
serum TNF-a level (TNF-a [4]): normalizes
TNF-a, sTNFR, and TGF-beta1 release (alveolar macrophages): inhibits

Oc1ccc(C=Cc2cc(O)cc(O)c2)cc1 [resveratrol, Resveratrol]
onset of endothelial progenitor cells senescence [5]: delayed the onset
telomerase ([5]; through the PI3K-Akt signalling pathway): activation of telomerase
TNF-a induced changes of adipokines (TNF-a [6]): inhibits
pro-inflammatory cytokine expression (IL-23p19, IFN-y, TNF-a, IL-6, MCP-1) [7]: significantly lower
chronic colonic inflammation [8]: attenuates
homocysteine formation [9]: suppresses

CC(C)=CCC[C@](C)(O[C@@H]1O[C@H](CO)[C@@H](O)[C@H](O)[C@H]1O)[C@H]1CC[C@]2(C)[C@@H]1[C@H](O)C[C@@H]1[C@@]3(C)CC[C@H](O)C(C)(C)[C@@H]3[C@@H](O[C@@H]3O[C@H](CO)[C@@H](O)[C@H](O)[C@H]3O)C[C@]12C [ginsenoside Rg1]
endothelial nitric oxide synthase phosphorylation via Akt [10]: induces
proliferation of vascular smooth muscle cells [11]: inhibits
TNF-a-induced HASMCs proliferation [12]: inhibits
